Each compound was assayed against human PAD4 (hPAD4) (Homo sapiens, UniProt Q9UM07) (assay: RFMS human PAD4 functional assay (rapid-fire mass spectrum)). Conditions: 5 nM hPAD4 enzyme, 250 μM BAEE, 50 μM Calcium; 30 min preincubation, 90 min reaction at 37° C.
Format: biochemical
In short: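 PAD4 (10 nM) preincubated 30 min with compound (top final 50 μM), then BAEE substrate added in pH 7.5 HEPES buffer with DTT, 50 μM calcium, TPEN; 90 min at 37° C. After TCA quench, citrulline derivatized with phenyl glyoxal (4 mM final, 30 min, 37° C) and quantified by RapidFire MS against internal standard.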

Chain of human PAD4 (hPAD4) (Q9UM07 whole entry): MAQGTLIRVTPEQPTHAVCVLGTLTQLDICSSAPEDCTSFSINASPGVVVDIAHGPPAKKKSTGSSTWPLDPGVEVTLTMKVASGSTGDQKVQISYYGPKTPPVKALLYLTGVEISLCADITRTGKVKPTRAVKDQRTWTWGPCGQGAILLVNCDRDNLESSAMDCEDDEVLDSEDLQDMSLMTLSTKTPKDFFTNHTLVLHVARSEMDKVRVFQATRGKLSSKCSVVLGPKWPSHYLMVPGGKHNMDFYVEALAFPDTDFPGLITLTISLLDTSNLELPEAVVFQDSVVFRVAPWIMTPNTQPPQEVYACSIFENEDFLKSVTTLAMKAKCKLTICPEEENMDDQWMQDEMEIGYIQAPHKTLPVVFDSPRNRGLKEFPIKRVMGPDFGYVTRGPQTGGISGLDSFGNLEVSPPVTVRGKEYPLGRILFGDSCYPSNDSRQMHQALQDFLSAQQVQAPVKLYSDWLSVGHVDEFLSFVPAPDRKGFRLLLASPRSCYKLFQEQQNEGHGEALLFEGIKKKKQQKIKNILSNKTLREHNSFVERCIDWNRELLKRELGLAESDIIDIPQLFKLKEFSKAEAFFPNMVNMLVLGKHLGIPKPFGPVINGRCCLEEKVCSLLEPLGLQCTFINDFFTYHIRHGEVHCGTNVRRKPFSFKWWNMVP

Compound | IC50
COc1cc(C(=O)N2C[C@H]3CC[C@@H]2[C@@H]3N)cc2nc(-c3cc4cccnc4n3CC3CC3)n(C[C@@H]3CCN(c4cncc(C#N)c4)C3)c12 [Example 211, 5-[(3R)-3-({5-[(1R,4R,7R)-7-amino-2-azabicyclo[2.2.1]heptane-2-carbonyl]-2-[1-(cyclopropylmethyl)-1H-pyrrolo[2,3-b]pyridin-2-yl]-7-methoxy-1H-1,3-benzodiazol-1-yl}methyl)pyrrolidin-1-yl]pyridine-3-carbonitrile] | 80 nM
COc1cc(C(=O)N2C[C@H]3CC[C@@H]2[C@@H]3N)cc2nc(-c3cc4cccnc4n3CC3CC3)n(C[C@@H]3CCN(c4cncnc4C#N)C3)c12 [Example 214, 5-[(3R)-3-({5-[(1R,4R,7R)-7-amino-2-azabicyclo[2.2.1]heptane-2-carbonyl]-2-[1-(cyclopropylmethyl)-1H-pyrrolo[2,3-b]pyridin-2-yl]-7-methoxy-1H-1,3-benzodiazol-1-yl}methyl)pyrrolidin-1-yl]pyrimidine-4-carbonitrile] | 116 nM
COc1cc(C(=O)N2CC3CCC2[C@@H]3N)cc2nc(-c3cc4cccnc4n3CC3CC3)n(CC3CCN(c4ncccn4)CC3)c12 (stereo partly drawn) [Example 220, (1R,4R,7R)-2-{2-[1-(cyclopropylmethyl)-1H-pyrrolo[2,3-b]pyridin-2-yl]-7-methoxy-1-{[1-(pyrimidin-2-yl)piperidin-4-yl]methyl)-1H-1,3-benzodiazole-5-carbonyl}-2-azabicyc1o[2.2.1]heptan-7-amine] | 72 nM
COc1cc(C(=O)N2CC3CCC2[C@@H]3N)cc2nc(-c3cc4cccnc4n3CC3CC3)n(CC3CCN(c4cnc(C#N)nc4)CC3)c12 (stereo partly drawn) [Example 221, 5-[4-({5-[(1R,4R.,7R)-7-amino-2-azabicyclo[2.2.1]heptane-2-carbonyl]-2-[1-(cyclopropylmethyl)-1H-pyrrolo[2,3-b]pyridin-2-yl]-7-methoxy-1H-1,3-benzodiazol-1-yl}methyl)piperidin-1-yl]pyrimidine-2-carbonitrile] | 96 nM
COc1cc(C(=O)N2CC3CCC2[C@@H]3N)cc2nc(-c3cc4ccccc4n3CC3CC3)n(C[C@H]3CCN(c4ccnc(C#N)n4)C3)c12 (stereo partly drawn) [Example 223, 4-[(3S)-3-({5-[(1R,4R,7R)-7-amino-2-azabicyclo[2.2.1]heptane-2-carbonyl]-2-[1-(cyc1opropylmethyl)-1H-indo1-2-yl]-7-methoxy-1H-1,3-benzodiazo1-1-yl}methyl)pyrrolidin-1-yl]pyrimidine-2-carbonitrile] | 18 nM
COc1cc(C(=O)N2CC3CCC2[C@@H]3N)cc2nc(-c3cc4ccccc4n3CC3CC3)n(C[C@H]3CCN(c4cncc(C#N)c4)C3)c12 (stereo partly drawn) [Example 225, 5-[(3S)-3-({5-[(1R,4R,7R)-7-amino-2-azabicyclo[2.2.1]heptane-2-carbonyl]-2-[1-(cyclopropylmethyl)-1H-indo1-2-yl]-7-methoxy-1H-1,3-benzodiazol-1-yl}methyl)pyrrolidin-1-yl]pyridine-3-carbonitrile] | 26 nM
COc1cc(C(=O)N2CC3CCC2[C@@H]3N)cc2nc(-c3cc4ccccc4n3CC3CC3)n(C[C@H]3CCN(C(=O)c4ccc(C#N)cc4)C3)c12 (stereo partly drawn) [Example 226, 4-[(3S)-3-({5-[(1R,4R,7R)-7-aminobicyclo[2.2.1]heptane-2-carbonyl]-2-[1-(cyc1opropylmethyl)-1H-indo1-2-yl]-7-methoxy-1H-1,3-benzodiazol-1-yl}methyl)pyrrolidine-1-carbonyl]benzonitrile] | 37 nM
COc1cc(C(=O)N2C[C@H]3CC[C@@H]2[C@@H]3N)cc2nc(-c3cc4ccccc4n3CC3CC3)n(C[C@H]3CCN(c4ccnc(C5CC5)n4)C3)c12 [Example 227, (1R,4R,7R)-2-{2-[1-(cyclopropylmethyl)-1H-indo1-2-yl]-1-{[(3S)-1-(2-cyclopropylpyrimidin-4-yl)pyrrolidin-3-yl]methyl}-7-methoxy-1H-1,3-benzodiazole-5-carbonyl}-2-azabicyclo[2.2.1]heptan-7-amine] | 41 nM
COc1cc(C(=O)N2C[C@H]3CC[C@@H]2[C@@H]3N)cc2nc(-c3cc4cccnc4n3CC3CC3)n(C3CCN(C(=O)c4cnc(C#N)nc4)CC3)c12 [Example 229, 5-(4-{5-[(1R,4R,7R)-7-amino-2-azabicyclo[2.2.1]heptane-2-carbonyl]-2-[1-(cyclopropylmethyl)-1H-pyrrolo[2,3-b]pyridin-2-yl]-7-methoxy-1H-1,3-benzodiazol-1-yl}piperidine-1-carbonyl)pyrimidine-2-carbonitrile] | 219 nM
COc1cc(C(=O)N2C[C@H]3CC[C@@H]2[C@@H]3N)cc2nc(-c3cc4cccnc4n3CC3CC3)n(CC3CCN(C(=O)c4ccnc(Cl)n4)CC3)c12 [Example 230, (1R,4R,7R)-2-(1-{[1-(2-chloropyrimidine-4-carbonyl)piperidin-4-yl]methyl}-2-[1-(cyclopropylmethyl)-1H-pyrrolo[2,3-b]pyridin-2-yl]-7-methoxy-1H-1,3-benzodiazole-5-carbonyl)-2-azabicyclo[2.2.1]heptan-7-amine] | 237 nM

Second part, the compound after the results:

IC50 | Compound
61 nM | COc1cc(C(=O)N2C[C@H]3CC[C@@H]2[C@@H]3N)cc2nc(-c3cc4cccnc4n3C)n(C[C@H]3CCN(c4ccnc(C5CC5)n4)C3)c12 [Example 209, (1R,4R,7R)-2-(1-{[(3S)-1-(2-cyclopropylpyrimidin-4-yl)pyrrolidin-3-yl]methyl}-7-methoxy-2-{1-methyl-1H-pyrrolo[2,3-b]pyridin-2-yl}-1H-1,3-benzodiazole-5-carbonyl)-2-azabicyclo[2.2.1]heptan-7-amine]
75 nM | COc1cc(C(=O)N2C[C@H]3CC[C@@H]2[C@@H]3N)cc2nc(-c3cc4cccnc4n3C)n(C[C@H]3CCN(c4ccnc(C#N)n4)C3)c12 [Example 210, 4-[(3S)-3-({5-[(1R,4R,7R)-7-amino-2-azabicyclo[2.2.1]heptane-2-carbonyl]-7-methoxy-2-{1-methyl-1H-pyrrolo[2,3-b]pyridin-2-yl}-1H-1,3-benzodiazol-1-yl}methyl)pyrrolidin-1-yl]pyrimidine-2-carbonitrile]
81 nM | COc1cc(C(=O)N2CC3CCC2[C@@H]3N)cc2nc(-c3cc4cccnc4n3CC3CC3)n(C[C@@H]3CCN(c4nccnc4C#N)C3)c12 (stereo partly drawn) [Example 212, 3-[(3R)-3-({5-[(1R,4R,7R)-7-amino-2-azabicyclo[2.2.1]heptane-2-carbonyl]-2-[1-(cyclopropylmethyl)-1H-pyrrolo[2,3-b]pyridin-2-yl]-7-methoxy-1H-1,3-benzodiazol-1-yl}methyl)pyrrolidin-1-yl]pyrazine-2-carbonitrite]
99 nM | COc1cc(C(=O)N2C[C@H]3CC[C@@H]2[C@@H]3N)cc2nc(-c3cc4cccnc4n3C)n(C[C@H]3CCN(c4ccnc(C)n4)C3)c12 [Example 213, (1R,4R,7R)-2-(7-methoxy-2-{1-methyl-1H-pyrrolo[2,3-b]pyridin-2-yl}-1-{[(3S)-1-(2-methylpyrimidin-4-yl)pyrrolidin-3-yl]methyl}-1H-1,3-benzodiazole-5-carbonyl)-2-azabicyclo[2.2.1]heptan-7-amine]
148 nM | COc1cc(C(=O)N2C[C@H]3CC[C@@H]2[C@@H]3N)cc2nc(-c3cc4cccnc4n3C)n(C[C@H]3CCN(c4cncc(C#N)c4)C3)c12 [Example 215, 5[(3S)-3-({5-[(1R,4R,7R)-7-amino-2-azabicyclo[2.2.1]heptane-2-carbonyl]-7-methoxy-2-{1-methyl-1H-pyrrolo[2,3-b]pyridin-2-yl}-1H-1,3-benzodiazol-1-yl}methyl)pyrrolidin-1-yl]pyridine-3-carbonitrile]
153 nM | COc1cc(C(=O)N2C[C@H]3CC[C@@H]2[C@@H]3N)cc2nc(-c3cc4cccnc4n3CC3CC3)n(C[C@@H]3CCN(c4ccnc(C)n4)C3)c12 [Example 216, (1R,4R,7R)-2-{2-[1-(cyclopropylmethyl)-1H-pyrrolo[2,3-b]pyridin-2-yl]-7-methoxy-1-{[(3R)-1-(2-methylpyrimidin-4-yl)pyrrolidin-3-yl]methyl}-1H-1,3-benzodiazole-5-carbonyl}-2-azabicyclo[2.2.1]heptan-7-amine]
56 nM | COc1cc(C(=O)N2C[C@H]3CC[C@@H]2[C@@H]3N)cc2nc(-c3cc4cccnc4n3CC3CC3)n(CC3CCN(c4ccncn4)CC3)c12 [Example 217, (1R,4R,7R)-2-{2-[1-(cyclopropylmethyl)-1H-pyrrolo[2,3-b]pyridin-2-yl]-7-methoxy-1-{[1-(pyrimidin-4-yl)piperidin-4-yl]methyl}-1H-1,3-benzodiazole-5-carbonyl}-2-azabicyclo[2.2.1]heptan-7-amine]
87 nM | COc1cc(C(=O)N2CC3CCC2[C@@H]3N)cc2nc(-c3cc4cccnc4n3CC3CC3)n(CC3CCN(c4ccnc(C#N)n4)CC3)c12 (stereo partly drawn) [Example 218, 4-[4-({5-[(1R,4R.,7R)-7-amino-2-azabicyclo[2.2.1]heptane020 carbonyl]-2-[1-(cyclopropylmethyl)-1H-pyrrolo[2,3-b]pyridin-2-yl]-7-methoxy-1H-1,3-benzodiazol-1-yl}methyl)piperidin-1-yl]pyrimidin-2-carbonitrile]
67 nM | COc1cc(C(=O)N2CC3CCC2[C@@H]3N)cc2nc(-c3cc4cccnc4n3CC3CC3)n(CC3CCN(c4ccnc(C)n4)CC3)c12 (stereo partly drawn) [Example 219]
166 nM | COc1nccc(N2CCC(Cn3c(-c4cc5cccnc5n4CC4CC4)nc4cc(C(=O)N5CC6CCC5[C@@H]6N)cc(OC)c43)CC2)n1 (stereo partly drawn) [Example 222, (1R.,4R,7R)-2-{2-[1-(cyclopropylmethyl)-1H-pyrrolo[2,3-b]pyridin-2-yl]-7-methoxy-1-{[1-(2-methoxypyrimidin-4-yl)piperidin-4-yl]methyl}-1H-1,3-benzodiazole-5-carbonyl}-2-azabicyclo[2.2.1]heptan-7-amine]
19 nM | COc1cc(C(=O)N2CC3CCC2[C@@H]3N)cc2nc(-c3cc4ccccc4n3CC3CC3)n(C[C@H]3CCN(c4ccnc(C)n4)C3)c12 (stereo partly drawn) [Example 224, (1R.,4R,7R)-2-{2-[1-(cyclopropylmethyl)-1H-indol-2-yl]-7-methoxy-1-{[(3S)-1-(2-methylpyrimidin-4-yl)pyrrolidin-3-yl]methyl}-1H-1,3-benzodiazole-5-carbonyl}-2-azabicyclo[2.2.1]heptan-7-amine]
